Experiments:
Assay in all cases: Ba/F3 cell drug screening, Cell Titer Glo
Format in all cases: cell-based
EGFR E709_T710del insD = biological target: T1, EGFR E709_T710del insD (Homo sapiens, UniProt P00533, DEL709-709/T710D); details: Ba/F3 cells expressing EGFR E709_T710del insD; 72 hours
T1 construct: expressed in transfected cells; host or cells: Ba/F3 (retroviral transduction, pBabe-Puro based vectors)
Procedure, shortened: (§1)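 Ba/F3 cells stably expressing mutant EGFR (retroviral, puromycin-selected, FACS-sorted for EGFR) were kept in 1 ng/ml EGF without IL-3. Cells were exposed to seven TKI concentrations or DMSO for 72 hours, viability measured by CellTiter-Glo, normalized to DMSO, and IC50 interpolated from variable-slope fits.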

EGFR Ex19del G796S = biological target: T2, EGFR Ex19del G796S (Homo sapiens, UniProt P00533, DEL746-750/G796S); details: Ba/F3 cells expressing EGFR Ex19del G796S; 72 hours
T2 construct: expressed in transfected cells; host or cells: Ba/F3 (retroviral transduction, pBabe-Puro based vectors)
Procedure, shortened: as §1

EGFR Ex19del L718Q = biological target: T3, EGFR Ex19del L718Q (Homo sapiens, UniProt P00533, DEL746-750/L718Q); details: Ba/F3 cells expressing EGFR Ex19del L718Q; 72 hours
T3 construct: expressed in transfected cells; host or cells: Ba/F3 (murine pro-B cells), retroviral transduction with pBabe-Puro based vectors
Procedure, shortened: as §1

EGFR Ex19del T790M L718V = biological target: T4, EGFR Ex19del T790M L718V (Homo sapiens, UniProt P00533, DEL746-750/L718V/T790M); details: Ba/F3 cells expressing EGFR Ex19del T790M L718V; 72 hours
T4 construct: expressed in transfected cells; host or cells: Ba/F3 (retroviral transduction, pBabe-Puro based vectors)
Procedure, shortened: as §1

EGFR Ex19del/C797S = biological target: T5, EGFR Ex19del/C797S (Homo sapiens, UniProt P00533, C797S/DEL746-750); details: Ba/F3 cells expressing EGFR Ex19del/C797S; 72 hours
T5 construct: expressed in transfected cells; host or cells: Ba/F3 (murine pro-B cells), retroviral transduction with pBabe-Puro based vectors
Procedure, shortened: as §1

EGFR Ex19del/L792H = biological target: T6, EGFR Ex19del/L792H (Homo sapiens, UniProt P00533, DEL746-750/L792H); details: Ba/F3 cells expressing EGFR Ex19del/L792H; 72 hours
T6 construct: expressed in transfected cells; host or cells: Ba/F3 (retroviral transduction, pBabe-Puro based vectors)
Procedure, shortened: as §1

EGFR G719S T790M = biological target: T7, EGFR G719S T790M (Homo sapiens, UniProt P00533, G719S/T790M); details: Ba/F3 cells expressing EGFR G719S T790M; 72 hours
T7 construct: expressed in transfected cells; host or cells: Ba/F3 (retroviral transduction, pBabe-Puro based vectors)
Procedure, shortened: as §1

EGFR G724S = biological target: T8, EGFR G724S (Homo sapiens, UniProt P00533, G724S); details: Ba/F3 cells expressing EGFR G724S; 72 hours
T8 construct: expressed in transfected cells; host or cells: Ba/F3 (retroviral transduction, pBabe-Puro based vectors)
Procedure, shortened: as §1

EGFR L718Q = biological target: T9, EGFR L718Q (Homo sapiens, UniProt P00533, L718Q); details: Ba/F3 cells expressing EGFR L718Q; 72 hours
T9 construct: expressed in transfected cells; host or cells: Ba/F3 (retroviral transduction, pBabe-Puro based vectors)
Procedure, shortened: as §1

[1] = biological target: T10, EGFR L747_K754del insATSPE (Homo sapiens, UniProt P00533, DEL747-749/K754E); details: Ba/F3 cells expressing EGFR L747_K754del insATSPE; 72 hours
T10 construct: expressed in transfected cells; host or cells: Ba/F3 (retroviral, pBabe-Puro based vector)
Procedure, shortened: as §1

EGFR L858R = biological target: T11, EGFR L858R (Homo sapiens, UniProt P00533, L858R); details: Ba/F3 cells expressing EGFR L858R; 72 hours
T11 construct: expressed in transfected cells; host or cells: Ba/F3 (retroviral, pBabe-Puro based vector)
Procedure, shortened: as §1

EGFR R776H = biological target: T12, EGFR R776H (Homo sapiens, UniProt P00533, R776H); details: Ba/F3 cells expressing EGFR R776H; 72 hours
T12 construct: host or cells: Ba/F3 (retroviral transduction, pBabe-Puro based vectors)
Procedure, shortened: as §1

EGFR S768I/T790M = biological target: T13, EGFR S768I/T790M (Homo sapiens, UniProt P00533, S768I/T790M); details: Ba/F3 cells expressing EGFR S768I/T790M; 72 hours
T13 construct: expressed in transfected cells; host or cells: Ba/F3 (retroviral transduction, pBabe-Puro based vectors)
Procedure, shortened: as §1

EGFR S768dupSVD V769M = biological target: T14, EGFR S768dupSVD V769M (Homo sapiens, UniProt P00533, INS768MDS/V769M); details: Ba/F3 cells expressing EGFR S768dupSVD V769M; 72 hours
T14 construct: expressed in transfected cells; host or cells: Ba/F3 (retroviral, pBabe-Puro based vector; created by GeneScript from EGFR S768dupSVD, c.2305G > A)
Procedure, shortened: as §1

EGFR S784F = biological target: T15, EGFR S784F (Homo sapiens, UniProt P00533, S784F); details: Ba/F3 cells expressing EGFR S784F; 72 hours
T15 construct: expressed in transfected cells; host or cells: Ba/F3 (retroviral, pBabe-Puro based vector; created by GeneScript from EGFR WT)
Procedure, shortened: as §1

## C=CC(=O)N1CCC(Oc2cc3c(Nc4ccc(Cl)c(Cl)c4F)ncnc3cc2OC)CC1 [Poziotinib]
EGFR E709_T710del insD
  Response of Cells Comprising PACC EGFR Mutations to Second-Generation TKIs: 0.06231
EGFR Ex19del G796S
  Response of Cells Comprising PACC EGFR Mutations to Second-Generation TKIs: 0.2054
EGFR Ex19del L718Q
  Response of Cells Comprising PACC EGFR Mutations to Second-Generation TKIs: 0.107
EGFR Ex19del T790M L718V
  Response of Cells Comprising T790M-like-S EGFR Mutations to Second-Generation TKIs: 15.89
EGFR Ex19del/C797S
  Response of Cells Comprising PACC EGFR Mutations to Second-Generation TKIs: 0.458
EGFR Ex19del/L792H
  Response of Cells Comprising PACC EGFR Mutations to Second-Generation TKIs: 0.3177
EGFR G719S T790M
  Response of Cells Comprising T790M-like-S EGFR Mutations to Second-Generation TKIs: 0.3262
EGFR G724S
  Response of Cells Comprising PACC EGFR Mutations to Second-Generation TKIs: 0.2246
EGFR L718Q
  Response of Cells Comprising PACC EGFR Mutations to Second-Generation TKIs: 0.1927
[1]
  Response of Cells Comprising T790M-like-S EGFR Mutations to Second-Generation TKIs: 0.8493
EGFR L858R
  Response of Cells Comprising Classical-Like EGFR Mutations to Second-Generation TKIs: 0.02579
EGFR R776H
  Response of Cells Comprising PACC EGFR Mutations to Second-Generation TKIs: 0.01644
EGFR S768I/T790M
  Response of Cells Comprising T790M-like-S EGFR Mutations to Second-Generation TKIs: 2.935
EGFR S768dupSVD V769M
  Response of Cells Comprising Ex20ins EGFR Mutations to Poziotinib: 0.07874
EGFR S784F
  Response of Cells Comprising Classical-Like EGFR Mutations to Second-Generation TKIs: 0.08572

From patent publication US20240108623A1, “METHODS OF TREATING CANCER WITH POZIOTINIB” (BOARD OF REGENTS, THE UNIVERSITY OF TEXAS SYSTEM, priority 2021, published 2024)
